We go through 21 compounds from patent US20100256098A1, “COMPOUNDS FOR INHIBITING WIP1, PRODRUGS AND COMPOSITIONS THEREOF, AND RELATED METHODS” (The United States of America, as represented by the …, priority 2007, published 2010).

Residue numbers refer to the chain shown, from its start. Where two headings read alike, the source gives them in different places. Bounds are passed on as bounds.

By Ki is commonly meant the equilibrium dissociation constant of an inhibitor or competing ligand from its target.

In assay [1] the target is T1, human Wip1 protein (rWip1, catalytic domain, residues 1-420) (Homo sapiens, UniProt O15297).
T1 sequence (O15297 1-420): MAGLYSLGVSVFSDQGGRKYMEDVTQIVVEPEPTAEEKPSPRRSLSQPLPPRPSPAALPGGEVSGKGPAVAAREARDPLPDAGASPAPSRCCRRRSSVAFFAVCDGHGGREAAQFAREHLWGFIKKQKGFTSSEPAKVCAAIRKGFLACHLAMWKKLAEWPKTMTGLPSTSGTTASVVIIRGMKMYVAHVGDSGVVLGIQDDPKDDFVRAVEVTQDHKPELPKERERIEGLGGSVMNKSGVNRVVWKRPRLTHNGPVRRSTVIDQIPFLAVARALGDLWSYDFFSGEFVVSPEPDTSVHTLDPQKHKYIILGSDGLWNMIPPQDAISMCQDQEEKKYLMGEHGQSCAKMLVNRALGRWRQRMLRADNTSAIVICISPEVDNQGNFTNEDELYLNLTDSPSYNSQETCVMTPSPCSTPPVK
In words: Wip1 phosphatase assay (malachite green/molybdate-based).
Method: (§1) An N-terminal histidine-tagged, catalytic domain of the human Wip1 protein (amino acid residues 1-420), rWip1, and K238D mutant of Wip1 were expressed in Escherichia coli BL21 (DE3) and purified as previously reported in Yamaguchi et al., supra.
(§2) Phosphatase activity was measured by a malachite green/molybdate-based assay (see, e.g., Yamaguchi et al., Biochemistry, 44:5285-5294 (2005), Harder et al, Biochem J., 298: 395-401 (1994), and Donella-Deana et al., Methods Enzymol., 366: 3-17 (2003)). […] The inhibitors were pre-equilibrated at 30° C. for 6 min. The inhibition percentages were estimated by the following equation.
(§3) where A and A100 denote absorbance intensities at 650 nm with and without the inhibitor, respectively. A0 denotes absorbance of the sample without phosphatase. The IC50 values were estimated by a sigmoidal dose-response equation. The apparent inhibitory constant (Ki) values were estimated using the following equation (see, e.g., Cheng et al., Biochem. Pharmacol., 22: 3099-3108 (1973)):

The subject of assay [2] is human Wip1 protein (rWip1, catalytic domain, residues 1-420). Described as above. The following applies: versus K238D mutant and PP2Cα.
Method: as §1, §2, §3
The next assay addresses T2, PP2Cα (Homo sapiens, UniProt P35813).
T2 sequence (P35813 1-382): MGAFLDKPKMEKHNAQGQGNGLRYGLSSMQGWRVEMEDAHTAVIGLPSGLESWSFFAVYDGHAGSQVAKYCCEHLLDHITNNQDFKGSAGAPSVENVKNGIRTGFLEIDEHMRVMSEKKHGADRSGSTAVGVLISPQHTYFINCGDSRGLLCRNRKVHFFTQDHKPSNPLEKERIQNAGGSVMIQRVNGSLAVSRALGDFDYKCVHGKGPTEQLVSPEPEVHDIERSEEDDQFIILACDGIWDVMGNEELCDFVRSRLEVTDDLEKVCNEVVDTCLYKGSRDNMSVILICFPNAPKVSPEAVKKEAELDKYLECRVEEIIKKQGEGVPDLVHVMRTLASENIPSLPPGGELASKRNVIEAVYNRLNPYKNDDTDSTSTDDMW
In words: Phosphatase assay with PP2Cα. The following applies: for Ki: read-out: Ki (μM) PP2Cα, Table 2, NI = no inhibition observed.

In another assay the target is T3, Wip1(K238D) (Homo sapiens, UniProt O15297, K238D).
T3 sequence (O15297 1-420 K238D): T1 sequence (O15297 1-420) with K238D
As to the kind of experiment: Phosphatase assay with the K238D mutant of Wip1. The following applies: for Ki: read-out: Ki (μM) Wip1(K238D), Table 2, K238D mutant of Wip1, NI = no inhibition observed.

In a further assay the test system is Wip1 in MCF7 cells. In words: Western blot of phospho-p38 MAPK and p38 MAPK in MCF7 cells treated with compound. In kind it is cell-based, human. The following applies: DMSO negative and UV (25J/m2) positive controls. On the procedure:
The selectivity of three compounds in inhibiting Wip1 was tested on human breast cancer cell line MCF7 cells, the latter strongly expressing Wip1. These cells were treated with each compound, and cell lysates were collected after the indicated time point. 20 ug of total protein extracts were subjected to SDS-PAGE, and levels of phospho-p38 MAPK and p38 MAPK were examined by Western blot analysis using specific antibodies. Dimethyl sulphoxide (DMSO) and UV (25J/m2) treated cells were used as the negative and positive controls respectively.
In general terms: Immunoblotting shows a protein as a band on a membrane.

Method for PP2Cα: (§4) The inhibitors were pre-equilibrated at 30° C. for 6 min. The inhibition percentages were estimated by the following equation.
as §3
(§5) wherein [S] is the concentration of the substrate peptide and Km is the Michaelis constant.
(§6) The selectivity of the compounds was determined. Certain compounds were tested to determine their selectivity in inhibiting Wip1, PP2Cα, and a K238D mutant of Wip1 according to the methods described above.
Method for Wip1(K238D): as §4, §3, §5, §6

Turning to `CC(C)Cc1c(-c2ccc(OP(=O)(O)O)c(Cl)c2)c(C(N)=O)c(Cc2ccc(Cl)cc2)n1CCCOP(=O)(O)O` [Compound 21], the inhibition constant Ki in assay [1] worked out at 22 ± 1 µM.

Take `CCC[C@H](C)Cc1c(-c2ccc(OP(=O)(O)O)c(Cl)c2)c(C(N)=O)c(CCc2ccc(Cl)cc2)n1CCCOP(=O)(O)O` [Compound 25]: the affinity in assay [1], expressed as Ki, was 4.7 ± 0.7 µM. Moreover, in assay [2], the “selectivity for Wip1” value is given as “highly selective”. Moreover, at PP2Cα, the “inhibition of PP2Cα” value was “no inhibition” and the Ki was greater than 100 µM. Further, on Wip1(K238D), the “inhibition of the K238D mutant” value is recorded as “no inhibition” and the Ki is greater than 100 µM. Turning to `CCc1c(-c2ccc(OP(=O)(O)O)cc2)c(C(N)=O)c(C)n1CCOP(=O)(O)O` [Compound 1], the inhibition constant (Ki) in assay [1] (pH 7.5) was greater than 100 µM. As for `CCCC(C)Cc1c(-c2ccc(OP(=O)(O)O)cc2)c(C(N)=O)c(CC(C)C)n1CCCOP(=O)(O)O` (stereo not drawn) [Compound 15], the inhibitory constant (Ki) in assay [1] is 48 ± 5 µM. For `CCCC(C)Cc1c(-c2ccc(OP(=O)(O)O)cc2)c(C(N)=O)c(C)n1CCCOP(=O)(O)O` (stereo not drawn) [Compound 9], the inhibitory constant (Ki) in assay [1] amounted to 22 ± 3 µM.

As for `CCCc1c(-c2ccc(OP(=O)(O)O)cc2)c(C(N)=O)c(C)n1CCOP(=O)(O)O` [Compound 2], in assay [1] (pH 7.5), the Ki is greater than 100 µM.

For the compound `CCCC(C)Cc1c(-c2ccc(OP(=O)(O)O)c(Cl)c2)c(C(N)=O)c(CCc2ccccc2)n1CCCOP(=O)(O)O` (stereo not drawn) [Compound 18], the Ki in assay [1] worked out at 15 ± 1 µM. In turn, `CCCCC(C)c1c(C(N)=O)c(-c2ccc(OP(=O)(O)O)c(Cl)c2)c(C)n1CCCOP(=O)(O)O` (stereo not drawn) [Compound 14] came in with an inhibition constant Ki in assay [1] (pH 7.5) greater than 100 µM. As for `CCCC(C)Cc1c(-c2ccc(OP(=O)(O)O)c(Cl)c2)c(C(=O)NC(CC(C)C)C(N)=O)c(C)n1CCCOP(=O)(O)O` (stereo not drawn) [Compound 13], the affinity in assay [1] corresponds to a Ki of 22 ± 2 µM. Consider `CCCC(C)Cc1c(-c2ccc(OP(=O)(O)O)c(Cl)c2)c(C(N)=O)c(Cc2ccc(F)cc2)n1CCCOP(=O)(O)O` (stereo not drawn) [Compound 23], for which, in assay [1], the inhibition constant Ki came to 16 ± 2 µM. `CCCCCc1c(-c2ccc(OP(=O)(O)O)c(Cl)c2)c(C(N)=O)c(C)n1CCOP(=O)(O)O` [Compound 5] displayed a Ki in assay [1] of 77 ± 12 µM. `CCCCC(CCCC)Cc1c(-c2ccc(OP(=O)(OCCSC(=O)C(C)(C)C)Oc3ccccc3)c(Cl)c2)c(C(=O)O)c(Cc2ccc(Cl)cc2)n1CCCOP(=O)(OCCSC(=O)C(C)(C)C)Oc1ccccc1` (stereo not drawn) [Compound 1A]: the “effectiveness in inhibiting Wip1 (levels of phospho-p38 MAPK)” value with Wip1 in MCF7 cells was “effective”. Take `Cc1c(C(N)=O)c(-c2ccc(OP(=O)(O)O)c(Cl)c2)c(CC(C)C)n1CCOP(=O)(O)O` [Compound 6]: affinity in assay [1] was put at a Ki of 38 ± 8 µM.

Consider `Cc1c(C(N)=O)c(-c2ccc(OP(=O)(O)O)cc2)c(CC2CCCCC2)n1CCOP(=O)(O)O` [Compound 4], for which, in assay [1], the inhibition constant (Ki) is 81 ± 5 µM. `CCC[C@@H](C)Cc1c(-c2ccc(OP(=O)(O)O)c(Cl)c2)c(C(N)=O)c(CCc2ccc(Cl)cc2)n1CCCOP(=O)(O)O` [Compound 26]: the inhibition constant (Ki) is 10 ± 1 µM in assay [1], greater than 100 µM at PP2Cα and greater than 100 µM at Wip1(K238D). In addition, the “selectivity for Wip1” value in assay [2] is reported as “highly selective”. Further, on PP2Cα, the “inhibition of PP2Cα” value is recorded as “no inhibition”. The “inhibition of the K238D mutant” value against Wip1(K238D) was “no inhibition”. In the case of `CCCC(C)Cc1c(-c2ccc(OP(=O)(O)O)c(Cl)c2)c(C(=O)NCCC(N)=O)c(C)n1CCCOP(=O)(O)O` (stereo not drawn) [Compound 12], the Ki in assay [1] (pH 7.5) was greater than 100 µM. As to `Cc1c(C(N)=O)c(-c2ccc(OP(=O)(O)O)c(Cl)c2)c(CC(C)C)n1CCCOP(=O)(O)O` [Compound 10], the Ki in assay [1] was determined as 28 ± 1 µM.

As to `CCCC(C)Cc1c(-c2ccc(OP(=O)(O)O)c(Cl)c2)c(C(N)=O)c(C)n1CCOP(=O)(O)O` (stereo not drawn) [Compound 7], the inhibitory constant (Ki) in assay [1] was 40 ± 1 µM. As for `CCCC(C)Cc1c(-c2ccc(OP(=O)(O)O)c(Cl)c2)c(C(N)=O)c(CCc2ccc(Cl)cc2)n1CCCOP(=O)(O)O` (stereo not drawn) [Compound 24], the results for the Ki (in assay [1]; at PP2Cα; on Wip1(K238D)) were 5.7 ± 0.4 µM, greater than 100 µM and greater than 100 µM, respectively. In addition, the “selectivity for Wip1” value in assay [2] is recorded as “highly selective”. Besides, the “inhibition of PP2Cα” value at PP2Cα was “no inhibition”. Besides, the “inhibition of the K238D mutant” value against Wip1(K238D) is “no inhibition”. Turning to `CCCC(C)Cc1c(-c2ccc(OP(=O)(O)O)cc2)c(C(N)=O)c(C)n1CCOP(=O)(O)O` (stereo not drawn) [Compound 3], the affinity in assay [1] corresponds to a Ki of 61 ± 15 µM.

In assay [1] (pH 7.5), `CCCC(C)Cc1c(-c2ccc(OP(=O)(O)O)c(Cl)c2)c(C(N)=O)c(C)n1CCCCOP(=O)(O)O` (stereo not drawn) [Compound 11] showed an inhibition constant (Ki) greater than 100 µM.
